Legend:
[1] = target: HEK-293 cells transfected with dox-inducible human wild type FGFR1 (Homo sapiens (Human), UniProt P11362); assay: FGFR1 pERK cell assay; format: cell-based; conditions: HEK-293 dox-inducible FGFR1, 1 hour compound, 100 ng/ml FGF-acidic; maximum concentration 5 μM
How it was run: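 In HEK-293 cells with dox-induced human wild-type FGFR1, compounds (1:3 dilutions, top 5 μM final) were applied 1 h at 37°C before 5 min stimulation with 100 ng/ml FGF-acidic. Phospho-ERK1/2 measured by MSD sandwich immunoassay; IC50 from 4-parameter fit of POC versus vehicle and control compound.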

[2] = target: T1, HEK-293 cells transfected with dox-inducible human wild type FGFR3 (Homo sapiens (Human), UniProt P22607); assay: FGFR3 pERK cell assay; format: cell-based; conditions: HEK-293 dox-inducible FGFR3, 1 hour compound, 100 ng/ml FGF-acidic; maximum concentration 5 μM
How it was run: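 Doxycycline-induced cells preincubated 1 h at 37 °C with compound (1:3 dilutions, top 5 μM final), then stimulated 5 min with 100 ng/ml FGF-acidic. Lysate phospho-ERK1/2 measured by MSD sandwich assay; IC50 at 50 POC from 4-parameter fit, normalised to no-compound and control-compound wells.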

[3] = target: FGFR3 (SEQ ID NO: 5, amino acids 449-759) (Homo sapiens (Human), UniProt P22607); assay: LC/MS FGFR3 kobs assay (covalent protein modification); format: binding; conditions: 500 nM FGFR3, 3 μM compound
How it was run: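 Intact-mass LC/MS tracks covalent labeling of the kinase domain over time after acid quench (0.4% formic acid). Unmodified fraction, scaled to DMSO controls, is fitted as exponential decay; kobs is reported, averaged when measured more than once.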

[4] = target: FGFR1 (SEQ ID NO: 1, amino acids 458-765) (Homo sapiens (Human), UniProt P11362); assay: LC/MS FGFR1 kobs assay (covalent protein modification); format: binding; conditions: 500 nM FGFR1, 3 μM compound
How it was run: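 Covalent labeling of FGFR1 kinase domain (aa 458-765) tracked over time by intact-protein LC/MS after formic acid quench. kobs derived by fitting DMSO-normalized percent unmodified FGFR1 to an exponential decay model.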

[5] = target: T1, HEK-293 cells transfected with dox-inducible human wild type FGFR3; assay: FGFR3 pFGFR cell assay (ELISA); format: cell-based; conditions: HEK-293 dox-inducible FGFR3, 1 hour compound, 100 ng/ml FGF-acidic
How it was run: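 Doxycycline-induced (1 μg/ml) HEK-293 cells expressing wild-type human FGFR3, treated 1 h with compound (1:3 series, top final 5 μM), then stimulated 5 min with 100 ng/ml FGF-acidic. Phospho-FGFR3 measured by ELISA (total FGFR3 capture, phosphotyrosine detection, OD 450 nm); IC50 from 4-parameter fit of POC values.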

T1 sequence (P22607 23-806): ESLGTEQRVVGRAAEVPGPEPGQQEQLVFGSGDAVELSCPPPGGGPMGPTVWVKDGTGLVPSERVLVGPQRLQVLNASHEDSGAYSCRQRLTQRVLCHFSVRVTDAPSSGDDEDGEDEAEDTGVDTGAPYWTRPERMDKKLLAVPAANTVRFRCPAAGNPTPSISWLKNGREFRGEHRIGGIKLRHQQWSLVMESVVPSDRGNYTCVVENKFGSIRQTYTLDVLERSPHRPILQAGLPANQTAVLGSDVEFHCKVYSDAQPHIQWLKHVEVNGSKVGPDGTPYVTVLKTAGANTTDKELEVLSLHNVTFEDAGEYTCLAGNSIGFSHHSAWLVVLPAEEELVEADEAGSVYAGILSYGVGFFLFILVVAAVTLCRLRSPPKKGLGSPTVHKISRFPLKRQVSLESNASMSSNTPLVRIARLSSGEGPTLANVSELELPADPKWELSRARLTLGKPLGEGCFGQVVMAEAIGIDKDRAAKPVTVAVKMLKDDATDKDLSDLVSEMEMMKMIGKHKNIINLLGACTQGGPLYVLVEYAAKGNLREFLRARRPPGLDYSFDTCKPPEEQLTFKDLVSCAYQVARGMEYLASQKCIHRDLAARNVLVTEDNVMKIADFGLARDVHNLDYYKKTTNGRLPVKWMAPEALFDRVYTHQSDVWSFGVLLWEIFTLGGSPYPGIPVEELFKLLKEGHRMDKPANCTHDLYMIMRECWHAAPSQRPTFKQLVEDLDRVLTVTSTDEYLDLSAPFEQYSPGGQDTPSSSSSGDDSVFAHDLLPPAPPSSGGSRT
Chain of FGFR1 (SEQ ID NO: 1, amino acids 458-765) (P11362 458-765): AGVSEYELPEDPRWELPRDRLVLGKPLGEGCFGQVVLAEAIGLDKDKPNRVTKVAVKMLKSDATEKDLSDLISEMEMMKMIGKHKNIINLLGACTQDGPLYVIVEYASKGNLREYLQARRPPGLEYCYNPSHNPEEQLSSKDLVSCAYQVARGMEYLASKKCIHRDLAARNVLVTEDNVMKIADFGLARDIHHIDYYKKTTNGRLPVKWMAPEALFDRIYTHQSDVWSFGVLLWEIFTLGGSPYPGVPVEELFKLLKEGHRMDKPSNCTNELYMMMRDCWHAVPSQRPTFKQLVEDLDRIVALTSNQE
Chain of HEK-293 cells transfected with dox-inducible human wild type FGFR1 (P11362 22-822): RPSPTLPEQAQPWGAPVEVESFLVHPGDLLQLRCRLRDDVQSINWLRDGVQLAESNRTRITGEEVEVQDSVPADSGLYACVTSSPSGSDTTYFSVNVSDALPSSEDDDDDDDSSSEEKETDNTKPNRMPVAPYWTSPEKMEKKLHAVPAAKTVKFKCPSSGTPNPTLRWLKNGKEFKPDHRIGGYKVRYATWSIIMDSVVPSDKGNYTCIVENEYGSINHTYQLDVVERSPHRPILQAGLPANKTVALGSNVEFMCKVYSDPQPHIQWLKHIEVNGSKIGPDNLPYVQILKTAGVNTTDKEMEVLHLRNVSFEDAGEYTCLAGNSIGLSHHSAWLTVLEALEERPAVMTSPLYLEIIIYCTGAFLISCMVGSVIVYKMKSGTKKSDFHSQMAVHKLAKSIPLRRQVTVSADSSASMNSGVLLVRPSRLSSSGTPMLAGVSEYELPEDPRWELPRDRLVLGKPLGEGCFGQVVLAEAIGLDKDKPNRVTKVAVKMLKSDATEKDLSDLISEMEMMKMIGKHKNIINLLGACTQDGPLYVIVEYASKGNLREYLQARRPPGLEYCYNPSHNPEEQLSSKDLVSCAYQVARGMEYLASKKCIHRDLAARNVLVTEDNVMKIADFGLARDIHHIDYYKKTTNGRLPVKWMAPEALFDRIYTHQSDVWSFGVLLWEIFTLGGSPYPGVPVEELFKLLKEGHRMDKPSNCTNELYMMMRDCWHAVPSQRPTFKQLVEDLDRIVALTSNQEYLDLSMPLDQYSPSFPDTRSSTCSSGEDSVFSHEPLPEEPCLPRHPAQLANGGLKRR
Chain of FGFR3 (SEQ ID NO: 5, amino acids 449-759) (P22607 449-759): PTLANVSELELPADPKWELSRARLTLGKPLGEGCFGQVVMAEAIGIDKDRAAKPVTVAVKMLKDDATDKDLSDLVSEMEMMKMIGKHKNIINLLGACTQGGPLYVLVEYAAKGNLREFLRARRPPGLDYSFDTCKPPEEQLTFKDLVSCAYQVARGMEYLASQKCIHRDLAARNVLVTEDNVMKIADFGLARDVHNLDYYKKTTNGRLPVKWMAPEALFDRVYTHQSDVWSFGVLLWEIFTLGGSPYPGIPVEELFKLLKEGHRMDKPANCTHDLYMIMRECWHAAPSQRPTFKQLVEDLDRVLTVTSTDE

| Structure (SMILES) | IC50 [1] [nM] | IC50 [2] [nM] | FGFR3 Enz kobs [3] [min⁻¹] | FGFR1 Enz kobs [4] [min⁻¹] | IC50 [5] [nM] |
| --- | --- | --- | --- | --- | --- |
| C=CC(=O)N1C2CC1CN(C(=O)N1CCC(n3cc(-c4cc(OC)c5c(C#N)cnn5c4)cn3)CC1)C2 [Example 1, 6-(1-(1-(6-acryloyl-3,6-diazabicyclo[3.1.1]heptane-3-carbonyl)piperidin-4-yl)-1H-pyrazol-4-yl)-4-methoxypyrazolo[1,5-a]pyridine-3-carbonitrile] | 525 | 86 | 0.01496 | 0.00122 | 26 |
| C=CC(=O)N1C2COCC1CN(C(=O)N1CCC(n3cc(-c4cc(OC)c5c(C#N)cnn5c4)cn3)CC1)C2 [Example 3, 6-(1-(1-(9-acryloyl-3-oxa-7,9-diazabicyclo[3.3.1]nonane-7-carbonyl)piperidin-4-yl)-1H-pyrazol-4-yl)-4-methoxypyrazolo[1,5-a]pyridine-3-carbonitrile] | 870 | 108 | 0.01875 | 0.00172 | 41 |
| C=CC(=O)N1CCC(C#N)(C(=O)N2CCC(n3cc(-c4cc(OC)c5c(C#N)cnn5c4)cn3)CC2)C1 (stereo not shown) [Example 31, 6-(1-(1-(1-acryloyl-3-cyanopyrrolidine-3-carbonyl)piperidin-4-yl)-1H-pyrazol-4-yl)-4-methoxypyrazolo[1,5-a]pyridine-3-carbonitrile] | 247 | 26 | 0.02377 | 0.00146 | 15 |
| C=CC(=O)N1CC(C(=O)N2CCC(n3cc(-c4cc(OC)c5c(C#N)cnn5c4)cn3)CC2)C1 [Example 36, 6-(1-(1-(1-acryloylazetidine-3-carbonyl)piperidin-4-yl)-1H-pyrazol-4-yl)-4-methoxypyrazolo[1,5-a]pyridine-3-carbonitrile] | 363 | 43 | 0.01426 | 0.00127 | 37 |
| C=CC(=O)N1CC(C#N)(C(=O)N2CCC(n3cc(-c4cc(OC)c5c(C#N)cnn5c4)cn3)CC2)C1 [Example 39, 6-(1-(1-(1-acryloyl-3-cyanoazetidine-3-carbonyl)piperidin-4-yl)-1H-pyrazol-4-yl)-4-methoxypyrazolo[1,5-a]pyridine-3-carbonitrile] | 52 | 8 | 0.2019 | 0.01019 | 101 |
| C=CC(=O)N1CC(OC)(C(=O)N2CCC(n3cc(-c4cc(OC)c5c(C#N)cnn5c4)cn3)CC2)C1 [Example 41, 6-(1-(1-(1-acryloyl-3-methoxyazetidine-3-carbonyl)piperidin-4-yl)-1H-pyrazol-4-yl)-4-methoxypyrazolo[1,5-a]pyridine-3-carbonitrile] | 91 | 12 | 0.02709 | 0.00254 | 10 |
| C=CC(=O)N1CC(C(=O)N2CCC(n3cc(-c4cc(OC)c5c(C#N)cnn5c4)cn3)CC2)C1C (stereo not shown) [Example 42, 6-(1-(1-(1-acryloyl-2-methylazetidine-3-carbonyl)piperidin-4-yl)-1H-pyrazol-4-yl)-4-methoxypyrazolo[1,5-a]pyridine-3-carbonitrile] | 631 | 77 | 0.01575 | 0.00113 | 31 |
| C=CC(=O)N1CC(C(=O)N2CCC(n3cc(-c4cc(OC)c5c(C#N)cnn5c4)cn3)CC2)C1(C)C (stereo not shown) [Example 43, 6-(1-(1-(1-acryloyl-2,2-dimethylazetidine-3-carbonyl)piperidin-4-yl)-1H-pyrazol-4-yl)-4-methoxypyrazolo[1,5-a]pyridine-3-carbonitrile] | 428 | 90 | 0.0041 | 0.0005 | 64 |
| C=CC(=O)Nc1ccc(C(=O)N2CC[C@@H](n3cc(-c4cc(OC)c5c(C#N)cnn5c4)cn3)C2)cc1 [Example 55, (R)-N-(4-(3-(4-(3-cyano-4-methoxypyrazolo[1,5-a]pyridin-6-yl)-1H-pyrazol-1-yl)pyrrolidine-1-carbonyl)phenyl)acrylamide] | 381 | 71 | 0.0205 | 0.00277 | 64 |
| C=CC(=O)Nc1ccc(C(=O)N2CC[C@H](n3cc(-c4cc(OC)c5c(C#N)cnn5c4)cn3)C2)cc1OC [Example 71, (S)-N-(4-(3-(4-(3-cyano-4-methoxypyrazolo[1,5-a]pyridin-6-yl)-1H-pyrazol-1-yl)pyrrolidine-1-carbonyl)-2-methoxyphenyl)acryla72 mide] | – | – | 0.02545 | 0.00457 | 35 |
| C=CC(=O)N1CC(C(=O)N2CC[C@H](n3cc(-c4cc(OC)c5c(C#N)cnn5c4)cn3)C2)C1 [Example 73, (S)-6-(1-(1-(1-acryloylazetidine-3-carbonyl)pyrrolidin-3-yl)-1H-pyrazol-4-yl)-4-methoxypyrazolo[1,5-a]pyridine-3-carbonitrile] | – | – | 0.00908 | 0.00108 | 313 |
| C=CC(=O)N1CC[C@H](C(=O)N2CC(n3cc(-c4cc(OC)c5c(C#N)cnn5c4)cn3)C2)C1 [Example 76, (S)-6-(1-(1-(1-acryloylpyrrolidine-3-carbonyl)azetidin-3-yl)-1H-pyrazol-4-yl)-4-methoxypyrazolo[1,5-a]pyridine-3-carbonitrile] | – | – | 0.00317 | 0.0007 | 1900 |
| C=CC(=O)N1CC(C(=O)N2CC(n3cc(-c4cc(OC)c5c(C#N)cnn5c4)cn3)C2)C1 [Example 78, 6-(1-(1-(1-acryloylazetidine-3-carbonyl)azetidin-3-yl)-1H-pyrazol-4-yl)-4-methoxypyrazolo[1,5-a]pyridine-3-carbonitrile] | – | – | 0.01629 | 0.00146 | 536 |
| C=CC(=O)N1CC(CN2CC(n3cc(-c4cc(OC)c5c(C#N)cnn5c4)cn3)C2)C1 [Example 81, 6-(1-(1-((1-acryloylazetidin-3-yl)methyl)azetidin-3-yl)-1H-pyrazol-4-yl)-4-methoxypyrazolo[1,5-a]pyridine-3-carbonitrile] | – | – | 0.00615 | 0.00086 | 117 |
| C=CC(=O)Nc1ccc(C(=O)N2CCC(n3cc(-c4cc(OC)c5c(C#N)cnn5c4)cn3)CC2)cc1 [Example 177, N-(4-(4-(4-(3-cyano-4-methoxypyrazolo[1,5-a]pyridin-6-yl)-1H-pyrazol-1-yl)piperidine-1-carbonyl)phenyl)acrylamide] | – | – | 0.01958 | 0.00324 | 57 |
| C=CS(=O)(=O)Nc1cccc(C(=O)N2CCC(n3cc(-c4cc(OC)c5c(C#N)cnn5c4)cn3)CC2)c1 [Example 188, N-(3-(4-(4-(3-cyano-4-methoxypyrazolo[1,5-a]pyridin-6-yl)-1H-pyrazol-1-yl)piperidine-1-carbonyl)phenyl)eth-enesulfonamide] | 134 | 19 | 0.08524 | – | 24 |
| C=CS(=O)(=O)N[C@H]1CC[C@H](C(=O)N2CCC(n3cc(-c4cc(OC)c5c(C#N)cnn5c4)cn3)CC2)C1 [Example 190, N-((1S,3S)-3-(4-(4-(3-cyano-4-methoxypyrazolo[1,5-a]pyridin-6-yl)-1H-pyrazol-1-yl)piperidine-1-carbonyl)cyclopentyl)-ethenesulfonamide] | – | – | 0.02714 | 0.00423 | 32 |
| C=CS(=O)(=O)N[C@@H]1CC[C@H](C(=O)N2CCC(n3cc(-c4cc(OC)c5c(C#N)cnn5c4)cn3)CC2)C1 [Example 191, N-((1R,3S)-3-(4-(4-(3-cyano-4-methoxypyrazolo[1,5-a]pyridin-6-yl)-1H-pyrazol-1-yl)piperidine-1-carbonyl)cyclopentyl)-ethenesulfonamide] | – | – | 0.02236 | 0.00583 | 20 |

Reference: patent US12180207B2 (ARRAY BIOPHARMA INC., priority 2018, dated 2024)
